Legend:
[1] = Liquid; for thermal conductivity: 101.33 kPa, Hot wire method; for viscosity / mass density: 101 kPa; for viscosity: Capillary tube (Ostwald / Ubbelohde) method; for mass density: Pycnometric method
[2] = wn = mass fraction of the nth substance listed; settings: 101 kPa, Liquid; for viscosity: Capillary tube (Ostwald / Ubbelohde) method; for thermal conductivity: Hot wire method; for mass density: Pycnometric method

CCOC(F)(F)C(F)(F)C(F)(F)C(F)(F)F [1-ethoxy-1,1,2,2,3,3,4,4,4-nonafluorobutane]
[1]
Settings | mass density [kg/m3] | thermal conductivity [W/m/K] | viscosity [mPa·s]
278.8 K | – | 0.0712 | –
297.8 K | 1417 | – | 0.6065
298.2 K | 1417 | 0.0662 | 0.6065
300.6 K | – | 0.0644 | –
314.1 K | – | 0.0616 | –
328.3 K | – | 0.059 | –
344.1 K | – | 0.0563 | –

CCOC(F)(F)C(F)(F)C(F)(F)C(F)(F)F [1-ethoxy-1,1,2,2,3,3,4,4,4-nonafluorobutane] + CCCCOCC
[2], 298.2 K
Settings | mass density [kg/m3] | thermal conductivity [W/m/K] | viscosity [mPa·s]
w2 = 0 | 1417 | 0.0662 | 0.6065
w2 = 0.1 | 1293.4 | 0.0664 | 0.5458
w2 = 0.2 | 1187.4 | 0.0707 | 0.5042
w2 = 0.4 | 1024.9 | 0.0774 | 0.4379
w2 = 0.6 | 907.4 | 0.0921 | 0.4077
w2 = 0.8 | 813.7 | 0.1085 | 0.397

CCOC(F)(F)C(F)(F)C(F)(F)C(F)(F)F [1-ethoxy-1,1,2,2,3,3,4,4,4-nonafluorobutane] + CO
[2], 297.8 K
Settings | mass density [kg/m3] | thermal conductivity [W/m/K] | viscosity [mPa·s]
w2 = 0 | 1417 | – | 0.6065
w2 = 0.1 | 1357 | 0.0729 | 0.6034
w2 = 0.2 | 1294.4 | 0.0794 | 0.6802
w2 = 0.4 | 1058.4 | 0.0948 | 0.6089
w2 = 0.6 | 946.5 | 0.1108 | 0.571
w2 = 0.8 | 852.6 | 0.1326 | 0.5495

CCCCOCC [butyl ethyl ether]
[1]
Settings | mass density [kg/m3] | thermal conductivity [W/m/K] | viscosity [mPa·s]
298.15 K | – | 0.1258 | –
298.2 K | 743 | – | 0.3868
299.62 K | – | 0.125 | –
312.17 K | – | 0.1229 | –
333.39 K | – | 0.1017 | –
354.63 K | – | 0.0949 | –

CCCCOCC [butyl ethyl ether] + CCOC(F)(F)C(F)(F)C(F)(F)C(F)(F)F
[2], 298.2 K, w1 = 1
Settings | mass density [kg/m3] | thermal conductivity [W/m/K] | viscosity [mPa·s]
– | 743 | 0.1258 | 0.3868

CO [methanol]
[1], 297.8 K
Settings | mass density [kg/m3] | viscosity [mPa·s]
– | 791.8 | 0.5463

CO [methanol] + CCOC(F)(F)C(F)(F)C(F)(F)C(F)(F)F
[2], 297.8 K, w1 = 1
Settings | mass density [kg/m3] | viscosity [mPa·s]
– | 791.8 | 0.5463

Reference: the NIST ThermoML archive (doi:10.1021/je1011828)
